These are literature values, as cited in patent US20210346426A1, “COMPOSITION AND METHOD FOR THE TREATMENT OF COVID-19” (priority 2020, published 2021).

For data set [1], the system named is blood coagulation.
For data set [2] the following is noted: even at high concentration.
The conditions of data set [3]: after oral administration.
Data set [4] relates to blood coagulation. The settings on record: intravenous injection.

With `O=C([O-])CC(O)(CC(=O)[O-])C(=O)[O-].[Na+].[Na+].[Na+]` [sodium citrate, Sodium Citrate], the “effect on blood coagulation in vitro” value in data set [1] is “prevents the blood from coagulation”.

As to `O=C(O)CC(O)(CC(=O)O)C(=O)O` [Citric acid, 2-Hydroxypropane-1,2,3-tricarboxylic acid], the “Acidity (pKa) pKa2” value is on record as “pKa2 = 4.76”. For the same compound, the “effect in contact with skin” value in data set [2] is “not injurious”.

With `O=C(O)CC(O)(CC(=O)O)C(=O)O` [citrate ion], in data set [3], the “excreted unchanged in urine” value was “less than 1%”; the “oxidation of the citrate ion” value is “rapidly and almost completely oxidized”. Further, in data set [4], the “coagulation times of the blood” value is “shortens”. The “effect on blood coagulation in vitro” value in data set [1] is “acts as an anticoagulant”.
